Molecules are shown by their SMILES.

Common to all, as to assay type: cell-based
For data set [1], the system named is keratinocytes. The experiment in a line: Keratinocyte SDS viability assay (Neutral Red). The following applies: vs 2 μg/ml SDS alone; 1 way ANOVA, p<0.05. The protocol:
(§1) After incubating for 24 hours the medium was removed and the viability determined by the Neutral Red method.

Another data set deals with procollagen-I. Put plainly: Dot blot assay for procollagen-I synthesis in human dermal fibroblasts. The protocol: Primary human foreskin fibroblasts at passage 2 (P2) were seeded into 12-well plates at 10000 cells/cm^2 and maintained for 24 hours in an atmosphere of 5% carbon dioxide and 4% oxygen in Dulbeccos Modified Eagles Medium (DMEM) supplemented with 10% foetal calf serum. After this time the cells were washed with serum free DMEM and then incubated in fresh serum free DMEM for a further 60 hours. The fibroblast monolayers were then washed again with serum free DMEM. Test reagents and vehicle controls were added to the cells in triplicate in a final volume of 0.4 ml/well fresh serum free DMEM and incubated for a further 24 hours. This fibroblast conditioned medium was either analysed immediately or snap frozen in liquid nitrogen and stored at -70° C. for future analysis. The cells were then counted and data from the dot-blot analysis subsequently standardised to cell number.
Samples of conditioned medium from dermal fibroblasts treated with vehicle (as a control) or test reagents were supplemented with 20 mM dithiothreitol (1:10 dilution of 200 mM stock solution) and 0.1% sodium dodecylsulphate (1:100 dilution of 10% stock solution), mixed well and then incubated at 75° C. for 2 minutes. […]
In order to normalise the results the effects of the test substance was determined relative to a vehicle treated control value of 100 arbitrary units. […]

In a further data set the test system is ICAM. Put plainly: ICAM-1 assay, PMA-induced ICAM production in human skin fibroblasts. Conditions: for ICAM: N 4, p < 0.001 vs PMA-treated. The protocol: (§2) Intracellular adhesion molecules (ICAM) and PEG2 production by human skin fibroblasts can be induced by the inflammatory stimulus PMA (phorbal myristate acetate). PMA represents an external stressor which induces oxidative stress and inflammatory responses in cells. This model is used to model inflammation in vivo.
(§3) Primary human foreskin fibroblasts at passage 2 (P2) were seeded into 96-well plates at 10000 cells/well and maintained for 24 hours in an atmosphere of 5% carbon dioxide in Dulbeccos Modified Eagles Medium (DMEM) supplemented with 10% foetal calf serum. […] Phorbal myristate acetate (PMA) (Sigma) was added to the media and the cells incubated for a further 24 hours. […] The fibroblasts/media were then analysed as described below immediately or snap frozen in liquid nitrogen and stored at -70° C. for future analysis. The cells were then counted and data from the dot-blot analysis subsequently standardised to cell number.
ICAM-1 assay: Media were discarded and cells washed with Dulbecco PBS. To the washed cells, 150 μl 0.1% Triton X-100 (Sigma) was added for 3 minutes to extract ICAM from cell membrane. The extracts were transferred to Eppendoff centrifuge tubes and centrifuged at 1000 g for 2 min to remove cell debris. A volume of 100 μl supernatant was used for ICAM assay. The soluble ICAM-1 was assessed with commercially available immunoenzymometric assay kit (R&D Systems). Concentrations of ICAM-1 in the samples were determined based on parallelly running standard curve.

For data set [2], the system named is PGE2. Put plainly: Prostaglandin E2 assay, PMA-induced PGE2 production in human skin fibroblasts. The following applies: for PGE2: N 4, p < 0.001 vs PMA-treated. The protocol: as §2, §3
Prostaglandin E2 (PGE2) assay: Volumes of 50 μl culture medium were taken for PGE2 assay after gently shaking the culture plate. PGE2 levels in the medium were determined with a Biotrak PGE2 immunoassay kit (Amersham, UK). The assay is based on the competition between unlabelled PGE2 in the sample and a fixed quantity of horseradish peroxidase labelled PGE2 for a limited amount of fixed PGE2 specific antibody. Concentrations of unlabelled sample PGE2 are determined according to a standard curve which was obtained at the same time.

In data set [3] the test system is PGE2. The experiment in a line: Keratinocyte PGE2 assay (basal release). Conditions: 0.1 and 1 μM; 1 way ANOVA, p<0.05. The protocol: This was then replaced with KGM without hydrocortisone for 24-48 hours. No petroselinic acid was added to the control cells. […] At the end of the incubation the medium was harvested and assayed for the basal release of the pro-inflammatory PGE2 by enzyme-linked immuno assay using a commercial PGE2 kit (Amersham, Buckinghamshire, England).
The anti-inflammatory potential of the test compounds were assessed by the ability of the compounds to reduce the basal levels of secreted PGE2 as compared to the control. […]

For data set [4], the system named is keratinocytes. The experiment in a line: Keratinocyte viability by neutral red up-take in PGE2 assay. The following applies: at the concentrations tested. As for the experimental part:
as §1
The cells were then tested for viability by the neutral red up-take method described in example 2 above.

Turning to `CCCCCCCCCCC/C=C\CCCCC(=O)O` [Petroselinic Acid, petroselinic acid], in the data set on keratinocytes [1], the “Keratinocyte viability vs SDS alone (in words)” value is “significantly increased viability”. The activity at 10 µM in the data set on procollagen-I (Homo sapiens, Fibroblast, 10 μM, 24 hours, n = 3, read-out: Procollagen-I synthesis relative to vehicle treated control value of 100) was 118 ± 8.6%. Also, the “procollagen-I synthesis (in words)” value in the data set on procollagen-I (compared to the control) was “significantly upregulates”. The ICAM came to 8.64 ± 0.89 ng/mL in the data set on ICAM (PMA + PA (0.1 uM)), 7.71 ± 0.66 ng/mL in the data set with ICAM (PMA + PA (1 uM)), 7.39 ± 0.14 ng/mL with ICAM (PMA + PA (10 uM)) and 6.68 ± 1.35 ng/mL with ICAM (PMA + PA (100 uM)). The “production of ICAM (in words)” value in the data set with ICAM (PMA-challenged) was “decreases the production”. For the same molecule, the PGE2 with PGE2 [2] (PMA + PA (0.1 uM)) was found to be 500 ± 127 pg/mL; with PGE2 [2] (PMA + PA (1 uM)) it was 486 ± 93 pg/mL; in the data set with PGE2 [2] (PMA + PA (10 uM)), 233 ± 139 pg/mL; in the data set with PGE2 [2] (PMA + PA (100 uM)), 117 ± 39 pg/mL. Moreover, the “inflammatory response as measured by PGE2 production (in words)” value with PGE2 [2] (PMA-challenged, even at 0.1 μm (so in the source)) is reported as “dramatically reduces the inflammatory response”. Further, the “release of PGE2 from unstimulated keratinocytes (in words)” value with PGE2 [3] is reported as “significantly (p<0.05) reduced”. Further, the “Cell viability of keratinocytes (in words)” value with keratinocytes [4] is “not found to be adversely effected”.
